Measurements published in patent US9000022B2 (Exelixis Patent Company LLC, priority 2005, dated 2015).

These molecules were tested on LXRα and/or LXRβ (assay: Co-transfection assay (LXRE luciferase reporter, CV-1 cells)). Details: tested as described in Example 33; IC50 or EC50 for LXRα and/or LXRβ, isoform not specified; read-out: activity (IC50 or EC50 for LXR).
Format: cell-based, human
Text: To measure the ability of compounds to activate or inhibit the transcriptional activity of LXR in a cell based assay, the co-transfection assay was used. It has been shown that LXR functions as a heterodimer with RXR. For the co-transfection assay, expression plasmids for LXR and RXR are introduced via transient transfection into mammalian cells along with a luciferase reporter plasmid that contains one copy of a DNA sequence that is bound by LXR-RXR heterodimers (LXRE; Willy, P. et. al. 1995). Treatment of transfected cells with an LXR agonist increases the transcriptional activity of LXR, which is measured by an increase in luciferase activity.
CV-1 African Green Monkey Kidney Cells Co-transfection expression plasmids, comprising full-length LXRα (pCMX-h LXRα, LXRβ (pCMX-hLXRβ), or RXRα (pCMX-RXR), reporter plasmid (LXREx1-Tk-Luciferase), and control (pCMX-Galactosidase expression vector) (Willey et al. Genes & Development 9 1033-1045 (1995)). Transfection reagent such as FuGENE6 (Roche). 1× Cell lysis buffer (1% Triton X 100 (J T Baker X200-07), 10% Glycerol (J T Baker M778-07), 5 mM Ditriotreitol (Quantum Bioprobe DTT03; add fresh before lysing), 1 mM EGTA (Ethylene Glycol-bis(B-Amino ethyl ether)-N,N,N′,N′-Tetracetic Acid) (Sigma E-4378), 25 mM Tricine (ICN 807420) pH 7.8) 1× Luciferase assay buffer (pH at 7.8) (0.73 mM ATP, 22.3 mM Tricine, 0.11 mM EDTA, 33.3 mM DTT) 1× Luciferrin/CoA (11 mM Luciferin, 3.05 mM Coenzyme A, 10 mM HEPES)
CV-1 cells were prepared 24 hours prior to the experiment by plating them into T-175 flasks or 500 cm^2 dishes in order to achieve 70-80% confluency on the day of the transfection. The number of cells to be transfected was determined by the number of plates to be screened. Each 384 well plate requires 1.92×10^6 cells or 5000 cells per well. DNA Transfection Reagent was prepared by mixing the required plasmid DNAs with a cationic lipid transfection reagent FuGENE6 (Roche) by following the instructions provided with the reagents. Optimal DNA amounts were determined empirically per cell line and size of vessel to be transfected. 10-12 mL of media was added to the DNA Transfection Reagent and this mixture was added to the cells after aspirating media from the T175 cm^2 flask. Cells were then incubated at least 5 hours at 37° C. to prepare screening cells.
Luciferase assay reagent was prepared by combining before use (per 10 mL): 10 mL 1× Luciferase assay buffer; 0.54 mL of 1× Luciferrin/CoA; 0.54 mL of 0.2 M Magnesium sulfate
Assay plates were prepared by dispensing 5 μL, of compound per well of a 384 well plate to achieve final compound concentration of 10 μM and no more than 1% DMSO. Media was removed from the screening cells, the cells trypsinized, harvested cells by centrifugation, counted, and plated at a density of approximately 5000 cells per well in the 384 well assay plate prepared above in a volume of about 45 μL. Assay plates containing both compounds and screening cells (50 μL in total volume) were incubated for 20 hours at 37° C.
After incubation with compounds, media was removed from the cells and lysis buffer (30 μL/well) added. After 30 minutes at ambient temperature, luciferase assay buffer (30 μL/well) was added and the assay plates read on a luminometer (PE Biosystems Northstar reader with on-board injectors, or equivalent). Plates were read immediately after addition of luciferase assay buffer.
The LXR/LNRE co-transfection assay can be used to establish the EC50/IC50 values for potency and percent activity or inhibition for efficacy. Efficacy defines the activity of a compound relative to a high control ((N-(3-((4-fluorophenyl)-(naphthalene-2-sulfonyl)amino)propyl)-2,2-dimethylpropionamide)) or a low control (DMSO/vehicle). The dose response curves are generated from an 8 point curve with concentrations differing by ½ LOG units. Each point represents the average of 4 wells of data from a 384 well plate. […]
`Cc1cc(-c2cccc(S(C)(=O)=O)c2)ccc1-c1nc(C(C)(C)O)cn1-c1c(C)cccc1C(C)C` [Example 59, 2-(1-(2-isopropyl-6-methylphenyl)-2-(3-methyl-3′-(methylsulfonyl)biphenyl-4-yl)-1H-imidazol-4-yl)propan-2-ol] showed an IC50 or EC50 (potency, activation or inhibition) of under 1 µM.
Work on `CCS(=O)(=O)c1cccc(-c2ccc(-c3nc(C(C)(C)O)cn3-c3c(C)cccc3C(C)C)c(C)c2)c1` [Example 60, 2-(2-(3′-(ethylsulfonyl)-3-methyl-biphenyl-4-yl)-1-(2-isopropyl-6-methylphenyl)-1H-imidazol-4-yl)propan-2-ol] yielded an IC50 or EC50 (potency, activation or inhibition) of under 1 µM.
`Cc1cc(-c2cccc(S(C)(=O)=O)c2)ccc1-c1nc(C(C)(C)O)cn1-c1ccccc1C(C)C` [Example 61, 2-(1-(2-isopropylphenyl)-2-(3-methyl-3′-(methylsulfonyl)biphenyl-4-yl)-1H-imidazol-4-yl)propan-2-ol] was tested, and the IC50 or EC50 (potency, activation or inhibition) was under 1 µM.
`CCS(=O)(=O)c1cccc(-c2ccc(-c3nc(C(C)(C)O)cn3-c3ccccc3C(C)C)c(C)c2)c1` [Example 62, 2-(2-(3′-(ethylsulfonyl)-3-methyl-biphenyl-4-yl)-1-(2-isopropylphenyl)-1H-imidazol-4-yl)propan-2-ol] gave an IC50 or EC50 (potency, activation or inhibition) of under 1 µM.
`CC(C)(O)c1cn(-c2c(Cl)cccc2Cl)c(-c2ccc(-c3cccc(S(C)(=O)=O)c3)cc2)n1` [Example 63, 2-(1-(2,6-dichlorophenyl)-2-(3′-(methylsulfonyl)biphenyl-4-yl)-1H-imidazol-4-yl)propan-2-ol] was tested, and the IC50 or EC50 (potency, activation or inhibition) was under 1 µM.
With `CCS(=O)(=O)c1cccc(-c2ccc(-c3nc(C(C)(C)O)cn3-c3c(Cl)cccc3Cl)cc2)c1` [Example 64, 2-(1-(2,6-dichlorophenyl)-2-(3′-(ethylsulfonyl)biphenyl-4-yl)-1H-imidazol-4-yl)propan-2-ol] the IC50 or EC50 (potency, activation or inhibition) was under 1 µM.
In the case of `CC(C)(O)c1cn(-c2c(Cl)cccc2Cl)c(-c2ccc(-c3cccc(S(C)(=O)=O)c3)cc2Cl)n1` [Example 65, 2-(2-(3-chloro-3′-(methyl-sulfonyl)biphenyl-4-yl)-1-(2,6-dichlorophenyl)-1H-imidazol-4-yl)propan-2-ol], the IC50 or EC50 (potency, activation or inhibition) is reported as under 1 µM.
With `CCS(=O)(=O)c1cccc(-c2ccc(-c3nc(C(C)(C)O)cn3-c3c(Cl)cccc3Cl)c(Cl)c2)c1` [Example 66, 2-(2-(3-chloro-3′-(ethyl-sulfonyl)biphenyl-4-yl)-1-(2,6-dichlorophenyl)-1H-imidazol-4-yl)propan-2-ol] the IC50 or EC50 (potency, activation or inhibition) was under 1 µM.
`CC(O)(c1cn(-c2ccc(-c3cccc(S(C)(=O)=O)c3)cc2)c(-c2ccccc2C(F)(F)F)n1)C(F)(F)F` (stereo not drawn) [Example 67] was tested, and the IC50 or EC50 (potency, activation or inhibition) was under 1 µM.
With `CCOC(=O)c1cn(-c2ccc(-c3cccc(S(C)(=O)=O)c3)cc2Cl)c(-c2c(Cl)cccc2Cl)n1` [Example 68, ethyl 1-(3-chloro-3′-(methyl-sulfonyl)biphenyl-4-yl)-2-(2,6-dichlorophenyl)-1H-imidazole-4-carboxylate] the IC50 or EC50 (potency, activation or inhibition) was under 1 µM.
Work on `CC(=O)c1cn(-c2ccc(-c3cccc(S(C)(=O)=O)c3)cc2)c(-c2c(Cl)cccc2Cl)n1` [Example 69, 1-(2-(2,6-dichlorophenyl)-1-(3′-(methylsulfonyl)biphenyl-4-yl)-1H-imidazol-4-yl)ethanone] yielded an IC50 or EC50 (potency, activation or inhibition) of under 1 µM.
Work on `C/C(=N\O)c1cn(-c2ccc(-c3cccc(S(C)(=O)=O)c3)cc2)c(-c2c(Cl)cccc2Cl)n1` [Example 70, (E)-1-(2-(2,6-dichlorophenyl)-1-(3′-(methylsulfonyl)biphenyl-4-yl)-1H-imidazol-4-yl)ethanone oxime] yielded an IC50 or EC50 (potency, activation or inhibition) of under 1 µM.
In the case of `CCc1ccccc1-c1nc(/C(C)=N/O)cn1-c1ccc(-c2cccc(S(C)(=O)=O)c2)cc1` [Example 71, (E)-1-(2-(2-ethylphenyl)-1-(3′-(methylsulfonyl)biphenyl-4-yl)-1H-imidazol-4-yl)ethanone oxime], the IC50 or EC50 (potency, activation or inhibition) is reported as under 1 µM.
For `CCC(O)(CC)c1cn(-c2ccc(-c3cccc(S(C)(=O)=O)c3)cc2)c(-c2cccc(Cl)c2Cl)n1` [Example 72, 3-(2-(2,3-dichlorophenyl)-1-(3′-(methylsulfonyl)biphenyl-4-yl)-1H-imidazol-4-yl)pentan-3-ol], the IC50 or EC50 (potency, activation or inhibition) was under 1 µM.
For `CCC(O)(CC)c1cn(-c2ccc(-c3cccc(S(=O)(=O)CC)c3)cc2)c(-c2cccc(Cl)c2Cl)n1` [Example 73, 3-(2-(2,3-dichlorophenyl)-1-(3′-(ethylsulfonyl)biphenyl-4-yl)-1H-imidazol-4-yl)pentan-3-ol], the IC50 or EC50 (potency, activation or inhibition) was under 1 µM.
Molecule `CCC(O)(CC)c1cn(-c2ccc(-c3cccc(S(C)(=O)=O)c3)cc2)c(-c2c(Cl)cccc2Cl)n1` [Example 74, 3-(2-(2,6-dichlorophenyl)-1-(3′-(methylsulfonyl)biphenyl-4-yl)-1H-imidazol-4-yl)pentan-3-ol] has an IC50 or EC50 (potency, activation or inhibition) of under 1 µM.
In the case of `Cc1cc(-c2cccc(S(C)(=O)=O)c2)ccc1-n1cc(C(=S)NCC(F)(F)F)nc1-c1ccccc1C(C)C` [Example 75, 2-(2-isopropylphenyl)-1-(3-methyl-3′-(methylsulfonyl)biphenyl-4-yl)-N-(2,2,2-trifluoroethyl)-1H-imidazole-4-carbothioamide], the IC50 or EC50 (potency, activation or inhibition) is reported as under 1 µM.
Molecule `C/C(=N\O)c1cn(-c2ccc(-c3cccc(S(C)(=O)=O)c3)cc2C)c(-c2ccccc2C(C)C)n1` [Example 76, (E)-1-(2-(2-isopropylphenyl)-1-(3-methyl-3′-(methylsulfonyl)biphenyl-4-yl)-1H-imidazol-4-yl)ethanone oxime] has an IC50 or EC50 (potency, activation or inhibition) of under 1 µM.
Molecule `C=C(C)c1cn(-c2ccc(-c3cccc(S(=O)(=O)CC)c3)cc2)c(-c2cccc(Cl)c2Cl)n1` [Example 77, 2-(2,3-dichlorophenyl)-1-(3′-(ethylsulfonyl)biphenyl-4-yl)-4-(prop-1-en-2-yl)-1H-imidazole] has an IC50 or EC50 (potency, activation or inhibition) of under 1 µM.
`C=C(C)c1cn(-c2ccc(-c3cccc(S(C)(=O)=O)c3)cc2)c(-c2c(Cl)cccc2Cl)n1` [Example 78, 2-(2,6-dichlorophenyl)-1-(3′-(methylsulfonyl)biphenyl-4-yl)-4-(prop-1-en-2-yl)-1H-imidazole] was tested, and the IC50 or EC50 (potency, activation or inhibition) was under 1 µM.
Molecule `CC(C)(O)c1cn(-c2ccc(-c3ccc(C(=O)NCc4ccccc4)c(S(C)(=O)=O)c3)cc2Cl)c(-c2c(F)cccc2Cl)n1` [Example 80, N-benzyl-3′-chloro-4′-(2-(2-chloro-6-fluorophenyl)-4-(2-hydroxypropan-2-yl)-1H-imidazol-1-yl)-3-(methyl-sulfonyl)biphenyl-4-carboxamide] has an IC50 or EC50 (potency, activation or inhibition) of 1 to 10 µM.
`CCNC(=O)c1cn(-c2ccc(-c3cccc(S(C)(=O)=O)c3)cc2)c(-c2c(Cl)cccc2Cl)n1` [Example 82, 2-(2,6-dichlorophenyl)-N-ethyl-1-(3′-(methylsulfonyl)biphenyl-4-yl)-1H-imidazole-4-carboxamide] gave an IC50 or EC50 (potency, activation or inhibition) of under 1 µM.
Work on `CN1CCN(C(=O)c2cn(-c3ccc(-c4cccc(S(C)(=O)=O)c4)cc3)c(-c3c(Cl)cccc3Cl)n2)CC1` [Example 83, (2-(2,6-dichlorophenyl)-1-(3′-(methylsulfonyl)biphenyl-4-yl)-1H-imidazol-4-yl)(4-methylpiperazin-1-yl)methanone] yielded an IC50 or EC50 (potency, activation or inhibition) of 1 to 10 µM.
In the case of `CS(=O)(=O)c1cccc(-c2ccc(-n3cc(C(=O)NCCO)nc3-c3c(Cl)cccc3Cl)cc2)c1` [Example 84, 2-(2,6-dichlorophenyl)-N-(2-hydroxyethyl)-1-(3′-(methyl-sulfonyl)biphenyl-4-yl)-1H-imidazole-4-carboxamide], the IC50 or EC50 (potency, activation or inhibition) is reported as under 1 µM.
